Results as given in patent publication US8202865B2, “Oxadiazole derivatives” (Merck Serono SA, priority 2007, dated 2012).
Structures can show the parent of a compound that is named as a salt.

Experiments:
S1P1 [1] = target: T1, S1P1 (Homo sapiens, UniProt P21453); assay: 35S-GTPγS binding, S1P1 membranes; assay type: biochemical; conditions: membranes from CHO cells expressing S1P1; 60 min 30° C.
T1 construct: expressed in transfected cells; host or cells: CHO cells (membranes)
Method in brief: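 CHO-cell membranes expressing S1P1 or S1P3 (1-10 μg) incubated with compounds in 20 mM HEPES pH 7.4, 10 mM MgCl2, 140 mM NaCl, saponin, 0.2% BSA, 1.7 μM GDP and [35S]-GTPγS (20 μl of 1.5 nM added), 60 min at 30° C. Bound radioactivity expressed as % of S1P activation.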

S1P3 = target: T2, S1P3 (Homo sapiens, UniProt Q99500); assay: 35S-GTPγS binding, S1P3 membranes; assay type: biochemical; conditions: membranes from CHO cells expressing S1P3; 60 min 30° C.
T2 construct: expressed in transfected cells; host or cells: CHO cells (membranes)
T2 sequence (Q99500 whole entry, species assumed): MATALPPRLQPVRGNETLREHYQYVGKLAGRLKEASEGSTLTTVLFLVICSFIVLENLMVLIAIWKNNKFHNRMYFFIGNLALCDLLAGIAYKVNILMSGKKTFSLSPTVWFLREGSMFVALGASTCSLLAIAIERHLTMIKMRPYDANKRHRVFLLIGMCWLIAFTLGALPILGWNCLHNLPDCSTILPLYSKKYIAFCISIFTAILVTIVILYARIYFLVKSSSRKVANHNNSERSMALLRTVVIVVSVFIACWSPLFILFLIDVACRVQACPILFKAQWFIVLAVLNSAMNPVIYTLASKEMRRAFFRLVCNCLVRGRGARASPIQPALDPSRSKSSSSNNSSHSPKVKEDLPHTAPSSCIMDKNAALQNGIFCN
Description: Receptor binding assay: Membranes were prepared from CHO cells expressing S1P1 or S1P3 for use in ligand and […] binding studies. Cells were suspended in 50 mM TRIS, pH 7.4, 2 mM EDTA, 250 mM Sucrose (buffer A) and 1× Complete protease inhibitor cocktail (Roche), and disrupted at 4° C. by N2 decompression using a cell disruption bomb (Parr Instrument). Following centrifugation at 1000 RPM for 10 min at 4° C., the supernatant was suspended in buffer A and centrifuged again at 19000 RPM for 60 min at 4° C. The pellet was then suspended in 10 mM HEPES, pH 7.4, 1 mM EDTA, 250 mM Sucrose (Buffer B), and 1× Complete EDTA-free protease inhibitor cocktail and homogenized using a potter. Membranes were flash frozen in liquid N2 and stored at −80° C. [33P]sphingosine 1-phosphate (3000 Ci/mmol; American Radiolabeled Chemicals, Inc.) was added to test compounds in DMSO. Membranes and WGA SPA beads (GE Healthcare) were added to give a final volume of 100 μl in 96-well plates with assay concentrations of 25 pM or 10 pM [33P]sphingosine 1-phosphate (respectively for S1P1 or S1P3), 50 mM HEPES, pH 7.5, 5 mM MgCl2, 100 mM NaCl, 0.4% fatty acid-free BSA, 1-5 μg/well of proteins and 100 μg/well of WGA SPA beads. Binding was performed for 60 min at RT on a shaker and bound radioactivity was measured on a PerkinElmer 1450 MicroBeta counter. Specific binding was calculated by subtracting remaining radioactivity in the presence of 1000-fold excess of unlabeled S1P. Binding data were analyzed using the GraphPad Prism program.
Measurements of ^35S-GTPγS Binding: Membranes (1 to 10 μg protein) prepared as described above, were incubated in 96-well Scintiplates (PerkinElmer) with test compounds diluted in DMSO, in 180 μl of 20 mM HEPES, pH 7.4, 10 mM MgCl2, 2 μg/well Saponin, 0.2% fatty acid free BSA (Assay buffer), 140 mM NaCl and 1.7 μM GDP. The assay was initiated with the addition of 20 μl of 1.5 nM [35S]-GTPγS (1100 Ci/mmol; GE Healthcare) in assay buffer. After 60 min incubation at 30° C. on a shaker, plates were centrifuged for 10 min at 2000 RPM. Supernatant was discarded and membrane bound radioactivity was measured on a PerkinElmer 1450 MicroBeta counter. Triplicate samples were averaged and expressed as % response relative to S1P activation in absence of compound (n=2).

S1P1 [2] = target: T1, S1P1; assay: Receptor binding assay, [33P]sphingosine 1-phosphate, membranes, WGA SPA beads; conditions: membranes from CHO cells expressing S1P1; 25 pM [33P]S1P; 60 min RT
Method in brief: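 CHO-cell membranes expressing S1P1 incubated with 25 pM [33P]S1P in 50 mM HEPES pH 7.5, 5 mM MgCl2, 100 mM NaCl, 0.4% fatty acid-free BSA with WGA SPA beads for 60 min at RT. Bound radioactivity counted by scintillation proximity; specific binding defined using 1000-fold excess unlabeled S1P.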

T1 sequence (P21453 whole entry, species assumed): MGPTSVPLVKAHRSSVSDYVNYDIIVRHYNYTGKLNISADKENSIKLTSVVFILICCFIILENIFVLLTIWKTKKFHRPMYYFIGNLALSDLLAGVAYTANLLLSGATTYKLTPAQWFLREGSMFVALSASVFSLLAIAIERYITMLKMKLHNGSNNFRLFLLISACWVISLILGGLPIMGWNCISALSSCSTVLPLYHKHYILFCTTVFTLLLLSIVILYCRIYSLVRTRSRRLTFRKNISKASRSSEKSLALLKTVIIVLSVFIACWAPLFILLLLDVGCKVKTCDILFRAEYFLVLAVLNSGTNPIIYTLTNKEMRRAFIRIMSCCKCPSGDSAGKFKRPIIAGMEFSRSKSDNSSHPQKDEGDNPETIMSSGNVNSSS

Compound | EC50 (S1P1 [1]) | EC50 (S1P3) | Ki (S1P1 [2])
CC1CCCCN1c1ccc(-c2nc(-c3ccc(C(=O)O)c(Cl)c3)no2)cc1NS(C)(=O)=O (stereo not drawn) [Example 70, 2-chloro-4-(5-{4-(2-methylpiperidin-1-yl)-3-[(methylsulfonyl)amino]phenyl}-1,2,4-oxadiazol-3-yl)benzoic acid] | 57 nM | 1410 nM | 69 nM
CCOc1cc(-c2nc(-c3ccc(C(=O)O)c(F)c3)no2)ccc1-c1ccccc1C [Example 102, 4-[5-(2-ethoxy-2′-methylbiphenyl-4-yl)-1,2,4-oxadiazol-3-yl]-2-fluorobenzoic acid] | 58 nM | 1760 nM | 11 nM
COCc1cc(-c2nc(-c3ccc(C(=O)O)c(F)c3)no2)ccc1-c1ccccc1C(F)(F)F [Example 86, 2-fluoro-4-{5-[2-(methoxymethyl)-2′-(trifluoromethyl)biphenyl-4-yl]-1,2,4-oxadiazol-3-yl}benzoic acid] | 155 nM | > 20000 nM | 48 nM
COCc1cc(-c2nc(-c3cccc(CN(C)CC(=O)O)c3)no2)ccc1-c1ccccc1C [Example 141, N-(3-{5-[2-(methoxymethyl)-2′-methylbiphenyl-4-yl]-1,2,4-oxadiazol-3-yl}benzyl)-N-methylglycine, Hydrochloride salt] | 0.85 nM | 621 nM | 1.4 nM
CC1CCCCN1c1ccc(-c2nc(-c3ccc(C(=O)O)c(F)c3)no2)cc1C(F)(F)F (stereo not drawn) [Example 19, 2-fluoro-4-{5-[4-(2-methylpiperidin-1-yl)-3-(trifluoromethyl)phenyl]-1,2,4-oxadiazol-3-yl}benzoic acid] | 347 nM | > 30000 nM | 110 nM
Cc1cc(-c2nc(-c3ccc(C(=O)O)c(F)c3)no2)ccc1-c1cscc1C [Example 9, 2-fluoro-4-{5-[3-methyl-4-(4-methyl-3-thienyl)phenyl}-1,2,4-oxadiazol-3-yl]benzoic acid] | 136 nM | > 30000 nM | 40 nM
COCc1cc(-c2nc(-c3ccc(C(=O)O)c(F)c3)no2)ccc1-c1cscc1C [Example 93, 2-fluoro-4-{5-[3-(methoxymethyl)-4-(4-methyl-3-thienyl)phenyl]-1,2,4-oxadiazol-3-yl}benzoic acid] | 18 nM | 1380 nM | 10 nM
COCc1cc(-c2nc(-c3ccc(C(=O)NCCCC(=O)O)c(F)c3)no2)ccc1-c1ccccc1C [Example 127, 4-[(2-fluoro-4-{5-[2-(methoxymethyl)-2′-methylbiphenyl-4-yl]-1,2,4-oxadiazol-3-yl}benzoyl)amino]butanoic acid] | 6 nM | 1220 nM | 2.1 nM
COCc1cc(-c2nc(-c3cccc(CN(C)CCC(=O)O)c3)no2)ccc1-c1ccccc1C [Example 150, N-(3-{5-[2-(methoxymethyl)-2′-methylbiphenyl-4-yl]-1,2,4-oxadiazol-3-yl}benzyl)-N-methyl-beta-alanine] | 0.5 nM | 95 nM | 0.3 nM
COCc1cc(-c2nc(-c3cccc(CN(C)CCO)c3)no2)ccc1-c1ccccc1C [Example 186, 2-[(3-{5-[2-(methoxymethyl)-2′-methylbiphenyl-4-yl]-1,2,4-oxadiazol-3-yl}benzyl)(methyl)amino]ethanol, Hydrochloride salt] | 1.1 nM | 1620 nM | 0.8 nM
CCS(=O)(=O)Nc1cc(-c2nc(-c3ccc(C(=O)O)c(F)c3)no2)ccc1N1CCCCC1C (stereo not drawn) [Example 67, 4-{5-[3-[(ethylsulfonyl)amino]-4-(2-methylpiperidin-1-yl)phenyl]-1,2,4-oxadiazol-3-yl}-2-fluorobenzoic acid] | 72 nM | 1750 nM | 67 nM
COc1ncccc1-c1ccc(-c2nc(-c3ccc(C(=O)O)c(F)c3)no2)cc1C [Example 28, 2-fluoro-4-{5-[4-(2-methoxypyridin-3-yl)-3-methylphenyl]-1,2,4-oxadiazol-3-yl}benzoic acid] | 834 nM | > 30000 nM | 190 nM
Cc1cc(-c2nc(-c3ccc(C(=O)O)cc3F)no2)ccc1-c1cscc1C [Example 26, 3-fluoro-4-{5-[3-methyl-4-(4-methyl-3-thienyl)phenyl]-1,2,4-oxadiazol-3-yl}benzoic acid] | 360 nM | > 20000 nM | 172 nM
Cc1cscc1-c1ccc(-c2nc(-c3ccc(C(=O)O)c(F)c3)no2)cc1C(F)(F)F [Example 23, 2-fluoro-4-{5-[4-(4-methyl-3-thienyl)-3-(trifluoromethyl)phenyl]-1,2,4-oxadiazol-3-yl}benzoic acid] | 197 nM | 14900 nM | 90 nM
CC1CCCCN1c1ccc(-c2nc(-c3ccc(OCC(=O)O)c(F)c3)no2)cc1C(F)(F)F (stereo not drawn) [Example 47, (2-fluoro-4-{5-[4-(2-methylpiperidin-1-yl)-3-(trifluoromethyl)phenyl]-1,2,4-oxadiazol-3-yl}phenoxy)acetic acid] | 40 nM | 1000 nM | 4 nM
CC1CCCCN1c1ccc(-c2nc(-c3ccc(C(=O)O)c(F)c3)no2)cc1C#N (stereo not drawn) [Example 29, 4-{5-[3-cyano-4-(2-methylpiperidin-1-yl)phenyl]-1,2,4-oxadiazol-3-yl}-2-fluorobenzoic acid] | 430 nM | > 30000 nM | 70 nM
Cc1ccccc1-c1ccc(-c2nc(-c3ccc(C(=O)O)c(F)c3)no2)cc1C(F)(F)F [Example 22, 2-fluoro-4-{5-[2′-methyl-2-(trifluoromethyl)biphenyl-4-yl]-1,2,4-oxadiazol-3-yl}benzoic acid] | 417 nM | > 20000 nM | 524 nM
CCc1ccccc1-c1ccc(-c2nc(-c3ccc(F)c(CN(C)CC(=O)O)c3)no2)cc1COC [Example 147, N-(5-{5-[2′-ethyl-2-(methoxymethyl)biphenyl-4-yl]-1,2,4-oxadiazol-3-yl}-2-fluorobenzyl)-N-methylglycine, Hydrochloride salt] | 1.5 nM | 754 nM | 2 nM
CCCS(=O)(=O)Nc1cc(-c2nc(-c3ccc(C(=O)O)c(F)c3)no2)ccc1N1CCCCC1C (stereo not drawn) [Example 74, 2-fluoro-4-(5-{4-(2-methylpiperidin-1-yl)-3-[(propylsulfonyl)amino]phenyl}-1,2,4-oxadiazol-3-yl)benzoic acid] | 408 nM | 1770 nM | 443 nM
Cc1ccccc1-c1ccc(-c2nc(-c3ccc(C(=O)O)c(F)c3)no2)cc1COC(C)C [Example 59, 2-fluoro-4-{5-[2-(isopropoxymethyl)-2′-methylbiphenyl-4-yl]-1,2,4-oxadiazol-3-yl}benzoic acid] | 286 nM | 767 nM | 182 nM
Cc1ccccc1-c1ccc(-c2nc(-c3ccc(OCC(=O)O)c(F)c3)no2)cc1C [Example 48, {4-[5-(2,2′-dimethylbiphenyl-4-yl)-1,2,4-oxadiazol-3-yl]-2-fluorophenoxy}acetic acid] | 129 nM | 17000 nM | 40 nM
Cc1ccccc1-c1ccc(-c2nc(-c3ccc(C(N)=O)c(F)c3)no2)cc1C [Example 171, 4-[5-(2,2′-dimethylbiphenyl-4-yl)-1,2,4-oxadiazol-3-yl]-2-fluorobenzamide] | 19 nM | > 20000 nM | 39 nM
COCc1cc(-c2nc(-c3ccc(C(=O)NCCc4nnn[nH]4)c(F)c3)no2)ccc1-c1ccccc1C [Example 177, 2-fluoro-4-{5-[2-(methoxymethyl)-2′-methylbiphenyl-4-yl]-1,2,4-oxadiazol-3-yl}-N-[2-(1H-tetrazol-5-yl)ethyl]benzamide] | 1.3 nM | 1150 nM | 2 nM
